Experimental data reported in US10675253B2, “Methods of diagnosis and treatment involving nitrite” (Board of Supervisors of Louisiana State University and …, priority 2017, dated 2020).
Read-outs that look alike come from different tables or passages of the source.

Columns and labels:
[1] = nitrite reduction to NO facilitated by ascorbic acid, DADS, or DATS; details: FIGS. 4, 6; over one hour
From the text: FIG. 4 is a line graph of experiments showing nitrite reduction to NO facilitated by ascorbic acid, DADS, or DATS;
FIG. 5 is a pair of line graphs of two experiments showing nitrite reduction to NO facilitated by ascorbic acid over one hour;
FIG. 6 is a pair of line graphs of two experiments showing nitrite reduction to NO facilitated by DADS over one hour;
FIG. 7 is a pair of line graphs of two experiments showing nitrite reduction to NO facilitated by DATS over one hour;
Turning to FIGS. 1-7, an embodiment of the disclosed invention, including a method of treatment of various conditions by increasing nitrite conversion to nitric oxide via DADS is described. This embodiment of the disclosed invention describes chemical reactions that may be useful for stimulating nitrite conversion to nitric oxide, namely diallyl disulfide (DADS) reduction of nitrite to nitric oxide. […] This would be useful for various purposes including unique ways to stimulate nitrite reduction to nitric oxide within an organism.
While it has been shown that increasing NO levels can be therapeutic for a number of conditions, the biochemical mechanism of nitrite reduction to NO, and thereby increasing NO levels, is poorly understood. Some agents can facilitate such reduction, such as ascorbic acid, but do so weakly. […]

[2] = biological target: xanthine oxidase (XO) (Homo sapiens, UniProt P47989); test: XO dependent nitrite reduction to NO / XO activity; assay type: biochemical
From the text: Referring to FIGS. 1-8, a further embodiment of the disclosed invention, including a method of treatment of various conditions by increasing XO associated nitrite conversion to nitric oxide is described. This embodiment of the disclosed invention describes chemical reactions that may be useful for stimulating xanthine oxidase (XO) to increase nitrite conversion to nitric oxide, namely diallyl trisulfide (DATS) stimulation of XO reduction of nitrite to nitric oxide. This would be useful for various purposes including unique ways to stimulate nitrite reduction to nitric oxide within an organism.
DATS may therefore be administered alone, or for example, with nitrite and/or XO, as a therapeutic for known NO mediated conditions, including inflammation, wound healing, and infections. DATS can be administered in a variety of methods, including nanoformulation compounds, especially for creams or lotions.

[3] = ascorbic acid as comparison agent; general statement; cited from earlier work

Chain of xanthine oxidase (XO) (P47989 whole entry, species assumed): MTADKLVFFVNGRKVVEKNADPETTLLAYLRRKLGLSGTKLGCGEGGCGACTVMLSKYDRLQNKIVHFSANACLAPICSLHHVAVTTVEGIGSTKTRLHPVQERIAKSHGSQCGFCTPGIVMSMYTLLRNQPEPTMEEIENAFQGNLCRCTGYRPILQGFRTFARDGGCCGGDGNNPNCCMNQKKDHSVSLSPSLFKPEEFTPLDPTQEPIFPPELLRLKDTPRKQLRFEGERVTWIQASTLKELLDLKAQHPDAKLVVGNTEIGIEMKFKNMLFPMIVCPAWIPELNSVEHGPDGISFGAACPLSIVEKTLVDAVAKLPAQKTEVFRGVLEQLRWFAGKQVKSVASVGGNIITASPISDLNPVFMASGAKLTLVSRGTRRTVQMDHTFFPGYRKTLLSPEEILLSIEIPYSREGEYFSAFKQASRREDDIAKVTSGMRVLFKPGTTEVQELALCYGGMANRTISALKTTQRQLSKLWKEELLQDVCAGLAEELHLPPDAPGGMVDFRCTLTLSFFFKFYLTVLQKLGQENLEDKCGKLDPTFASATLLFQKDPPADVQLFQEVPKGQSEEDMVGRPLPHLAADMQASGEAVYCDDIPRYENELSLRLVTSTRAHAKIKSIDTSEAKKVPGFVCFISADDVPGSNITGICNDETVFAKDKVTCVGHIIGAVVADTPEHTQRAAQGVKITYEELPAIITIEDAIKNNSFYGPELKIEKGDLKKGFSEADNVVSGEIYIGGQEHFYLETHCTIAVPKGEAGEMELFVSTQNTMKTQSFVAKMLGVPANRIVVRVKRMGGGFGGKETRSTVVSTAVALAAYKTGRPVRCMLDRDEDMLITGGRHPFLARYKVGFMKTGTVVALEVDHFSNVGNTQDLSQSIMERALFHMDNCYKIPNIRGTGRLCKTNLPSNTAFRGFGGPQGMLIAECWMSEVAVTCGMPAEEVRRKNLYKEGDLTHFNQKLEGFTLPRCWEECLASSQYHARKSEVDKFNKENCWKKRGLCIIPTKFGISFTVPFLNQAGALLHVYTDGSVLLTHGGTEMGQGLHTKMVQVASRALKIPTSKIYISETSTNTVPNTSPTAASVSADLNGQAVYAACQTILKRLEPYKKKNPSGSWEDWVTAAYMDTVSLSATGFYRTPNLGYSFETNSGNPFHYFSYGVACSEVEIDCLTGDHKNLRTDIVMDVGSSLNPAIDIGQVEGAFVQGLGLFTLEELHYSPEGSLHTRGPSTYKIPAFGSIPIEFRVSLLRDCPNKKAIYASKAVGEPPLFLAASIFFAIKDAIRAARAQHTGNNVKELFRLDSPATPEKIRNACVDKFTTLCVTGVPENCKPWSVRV

**Q.** Which “nitrite reduction to NO” value [1] does the source give for `C=CCSSCC=C` [DADS, diallyl disulfide] here?
**A.** The value was “selectively stimulate nitrite reduction to NO”.

**Q.** With `C=CCSSSCC=C` [DATS, diallyl trisulfide] as the molecule, how does the “XO dependent nitrite reduction to NO” value [2] read?
**A.** The value was “selectively increases XO dependent nitrite reduction to NO”.

**Q.** What about the “XO activity & NO production” value ([2]; FIG. 8) of the same molecule?
**A.** The value was “differentially affects XO activity & NO production”.

**Q.** Which “nitrite reduction to NO” value [3] does the source give for `O=C1O[C@H]([C@@H](O)CO)C(O)=C1O` [ascorbic acid] here?
**A.** Its value is “weakly”.
